Measurements from patent publication US7022719B2, “Preventing and reversing the formation of advance glycosylation endproducts” (Alteon, Inc., priority 1995, dated 2006).
Values joined by “and” are separate entries in the source; they are usually repeats but may differ in a detail not shown here. Equal entries are not always repeated. Structures can show the parent of a compound that is named as a salt. Where two headings read alike, the source gives them in different places. Each block holds one compound with its values, some of them ahead of it.

Legend:
[1] = test system: cross-linking of glycated bovine serum albumin (AGE-BSA) to rat tail tendon collagen; experiment: Cross-linking Inhibition Assay; details: for IC50: inhibition of AGE-BSA cross-linking to collagen-coated plate
Procedure: The following method was used to evaluate the ability of the compounds of the present invention to inhibit the cross-linking of glycated bovine serum albumin (AGE-BSA) to the rat tail tendon collagen-coated 96-well plate.
The blocking solution was removed from the wells by, washing the plate twice with PBS-'Tween 20 solution (0.05% Tween 20) using a NUNq-multiprobe or Dynatech ELISA-plate washer. Cross-linking of AGE-BSA (1 to 10 mg per well depending on the batch of AGE-BSA) to rat tail tendon collagen coated plate was performed with and without the testing ‘compound dissolved in PBS buffer at pH 7.4 at the desired concentrations by the, addition of 50 μl each of the AGE-BSA diluted in PBS or in the solution of test compound at 37° C. for 4 hours. Unbrowned BSA in PBS buffer with or without testing compound were added to the separate wells as the blanks. The un-cross-linked AGE-BSA was then removed by washing the wells three times with PBS-Tween buffer. The amount of AGE-BSA cross-linked to the tail tendon collagen-coated plate was then quantitated using a polyclonal antibody raised against AGE-RNase. After a one-hour incubation period, AGE antibody was removed by washing 4 times with PBS-Tween.
The bound AGE antibody was then detected with the addition of horseradish peroxidase-conjugated secondary antibody—goat anti-rabbit immunoglobulin and incubation for 30 minutes. […] The reaction was allowed for an additional 15 minutes and the absorbance was read at 410 nm in a Dynatech plate reader.

[2] = test system: AGE-BSA crosslinked to collagen; experiment: Cross-link Breaking Assay (sandwich enzyme immunoassay); format: biochemical; details: for Breaking Anti-AGE: anti-AGE antibody; for Breaking Anti-BSA: anti-BSA antibody
Procedure: The present invention also involves a novel sandwich enzyme immunoassay used to ascertain the ability of test compounds to “break” or reverse already formed advanced glycosylation endproducts by detecting the breaking of AGE (Advanced glycosylation endproduct) moieties from AGE-crosslinked protein. This assay comprises: • a) incubation of AGE-modified bovine serum albumin (AGE BSA) on collagen-coated wells of microtiter plates for a period of 2–6 hours' at a temperature of 37° C.; • b) washing of the wells with PBS-Tween; • c) application of the test compounds to the washed wells of step b; • d) incubation of the test compounds applied to the washed wells for an additional 12–24 hours at a temperature of about 37° C.; and • e) detection of the AGE-breaking using an antibody raised against AGE-ribonuclease or cross-link breaking with an antibody against BSA.
In order to ascertain the ability of the compounds of the instant invention to “break” or reverse already formed advanced glycosylation endproducts, a novel sandwich enzyme immunoassay was developed which detects breaking of AGE (Advanced glycosylation endproduct) moieties from AGE-crosslinked protein. The assay utilizes collagen-coated 96 well microtiter plates that are obtained commercially. […] Following an incubation period of 16 hours (37° C.) cross-link-breaking is detected using an antibody raised against AGE-ribonuclease or with an antibody against BSA. […] Details of the assay are as follows:
Methods Preparation of Solutions and Buffers • 1. AGE-BSA stock solutions were prepared as follows. Sodium phosphate buffer (0.4 M) was prepared by dissolving 6 grams of monobasic sodium phosphate in 100 ml of distilled water, 7 grams of dibasic sodium phosphate (0.4 M) in 100 ml of distilled water and adjusting the pH of the dibasic solution to 7.4 with the monobasic solution. Sodium azide (0.02 grams) was added per 100 ml volume to inhibit bacterial growth. The BSA solution was prepared as follows: 400 mg of Type V BSA (bovine serum albumin) was added for each ml of sodium phosphate buffer (above). A 400 mM glucose solution was prepared by dissolving 7.2 grams of dextrose in 100 ml of sodium phosphate buffer (above). The BSA and glucose solutions were mixed 1:1 and incubated at 37° C. for 12 weeks. The pH of the incubation mixture was monitored weekly and adjusted to pH 7.4 if necessary. After 12 weeks, the AGE-BSA solution was dialyzed against PBS for 48 hours with four buffer changes, each at a 1:500 ratio of solution to dialysis buffer. Protein concentration was determined by the micro-Lowry method. The AGE-BSA stock solution was aliquoted and stored at −20° C. […] Working solutions for crosslinking and breaking studies were prepared as follows. Test compounds were dissolved in PBS and the pH was adjusted to pH 7.4 if necessary. AGE-BSA stock solution was diluted in PBS to measure maximum crosslinking and in the inhibitor solution for testing inhibitory activity of compounds. The concentration of AGE-BSA necessary to achieve the optimum sensitivity was determined by initial titration of each lot of AGE-BSA. • 3. Wash buffer (“PBS-Tween”) was, prepared as follows. PBS was prepared by dissolving the following salts in one liter of distilled water: NaCl, 8 grams; KC1, 0.2 gram, KH2PO4. […] Tween-20 was added to a final concentration of 0.05% (vol/vol). • 4. Substrates for detection of secondary antibody binding were prepared by diluting the HRP substrate buffer 1:10 in distilled water and mixing with ABTS chromogen 1:50 just prior to use. Assay Procedures • 1. Biocoat plates were blocked with 300 μl of “Superbloc”. Plates were blocked for one hour at room temperature and were washed with PBS-Tween three times with the Dynatech platewasher before addition of test reagents. • 2. Each experiment was set up in the following manner. The first three wells of the Biocoat plate were used for the reagent blank.

cross-linked AGE-BSA = experiment: Breaking of AGE-BSA polymer gel (SDS-PAGE); format: biochemical; details: 10 mm, overnight at 37° C.
Procedure: BSA and glucose solutions (100 ml each) were mixed in the one liter Coming sterile flask, screw-capped tight and incubated at 56° C. without shaking. The bottle was opened once a week to remove aliquots for testing. Reaction was continued for 9 weeks when AGE-BSA polymer formation was observed.
Pieces of AGE-BSA gel was washed with PBS until no more protein was leached in the supernatant, blotted dry with paper towels. About 50 mg of the washed gel was incubated either with PBS or 10 mm 3-(2-phenyl-2-oxoethyl)thiazolium bromide (ALT 766) overnight at 37° C. The supernatants were analyzed by SDS-PAGE and stained with coommassie blue.

tail tendon collagen = experiment: CNBr peptide maps of tail tendon collagen from diabetic rats; format: biochemical, rat; details: tail tendon collagen of rats diabetic for 32 weeks, treated before cyanogen bromide digestion
[3] = detection with anti-AGE antibody, read-out: IC50 (mM) Anti-AGE
[4] = detection with anti-BSA antibody, read-out: IC50 (mM) Anti-BSA

melting point: 210 to 211 °C
Compound: Cc1c[n+](CC(=O)c2cc(C(C)(C)C)c(O)c(C(C)(C)C)c2)cs1 (as salt: bromide) [3-[2-(3′,5′-di-tert-butyl-4′-hydroxyphenyl)-2-oxoethyl)-5-methyl-thiazolium bromide]

melting point: 213 to 215 °C
Compound: C#CC[n+]1cscc1C.[Br-]

melting point: 198 to 200 °C
Compound: C#CC[n+]1csc(C)c1C.[Br-]

melting point: 243 to 244 °C (dec.)
Compound: Cc1sc[n+](CC(=O)c2cc(C(C)(C)C)c(O)c(C(C)(C)C)c2)c1C (as salt: bromide) [3-(2-(3′,5′-di-tert-butyl-4′-hydroxypheny].)-2-oxoethyl]-4,5-dimethyl-thiazolium bromide]

Compound: O=C(C[n+]1ccsc1)c1ccccc1.[Br-] [3-(2-phenyl-2-oxoethyl) thiazolium bromide]
IC50 [1]: 11.1 mM | release of BSA from pre-formed AGE-mediated AGE-BSA/collagen complexes ([2]; AGE-BSA reacted with unmodified, native collagen): concentration-dependent release of BSA | Breaking Anti-AGE ([2]; concentration not given): 73% | Breaking Anti-BSA ([2]; concentration not given): 98% | IC50 [2, 3]: 0.02 mM | IC50 [2, 4]: 0.014 mM | breaking of cross-linked AGE-BSA (SDS-PAGE, FIG. 2) (cross-linked AGE-BSA): breaking of cross-linked AGE-BSA | electrophoresis of CNBr-digested collagen after treatment (tail tendon collagen): indistinguishable from untreated, non-diabetic (control) collagen

melting point: 64 to 66 °C
Compound: C#CC[n+]1ccsc1.[Br-]

Compound: Cc1c(CCO)sc[n+]1CC(=O)c1ccc2c(c1)OCCO2.[Br-] [3 (2-(1′,4′-benzodioxan-6-yl)-2-oxoethyl]-4-methyl-5-(2′-hydroxyethyl)-thiazolium bromide]
Relative Cross-link Inhibition (at 10 mM) [1]: 13% | Breaking Anti-AGE ([2]; at 3 mM): 11% | Breaking Anti-BSA ([2]; at 3 mM): 21%

Breaking Anti-AGE ([2]; at 10 mM): 4% and 14% | Breaking Anti-BSA ([2]; at 10 mM): 19% and 25% | melting point: 135 to 136 °C
Compound: COc1cccc(C[n+]2csc(CCO)c2C)c1.[Cl-] [3-(3′-methoxybenzyl)-4-methyl-5-(2′-hydroxyethyl)-thiazolium chloride]

Compound: COC(=O)C[n+]1csc(C)c1.[Br-] [3-(2-methoxy-2-oxoethyl)-5-methyl-thiazolium bromide]
IC50 [1]: 3.2 mM | Breaking Anti-AGE ([2]; at 30 mM): 72% | Breaking Anti-BSA ([2]; at 30 mM): 27%

Compound: C=Cc1sc[n+](CC(=O)c2ccccc2)c1C.[Br-] [3-(2-phenyl-2-oxoethyl)-4-methyl-5-vinyl-thiazolium bromide]
Breaking Anti-AGE ([2]; at 1 mM): 62% | Breaking Anti-BSA ([2]; at 1 mM): 82% | IC50 [2, 4]: 0.1 mM | melting point: 176 to 177 °C

melting point: 222 to 223 °C
Compound: COC(=O)c1ccc(NC(=O)C[n+]2csc(CCO)c2C)cc1O (as salt: bromide) [3-(2-(4′-carbmethoxy-3′-hydroxyanilino)-2-oxoethyl]-4-methyl-5-(2′-hydroxyethyl)-thiazolium bromide]

Compound: Cc1c(CCO)sc[n+]1CC(=O)c1ccccc1.[Br-] [3-(2-phenyl-2-oxoethyl)-4-methyl-5-(2-hydroxyethyl)-thiazolium bromide]
IC50 [1]: > 10 mM | Breaking Anti-AGE ([2]; at 30 mM): 67% | Breaking Anti-BSA ([2]; at 30 mM): 13% | IC50 [2, 3]: 14.3 mM

melting point: 132 to 134 °C
Compound: C#CC[n+]1csc(CCO)c1C.[Br-]

Compound: CC(C)(C)C(=O)C[n+]1ccsc1.[Br-] [3-(2-tert-butyl-2-oxoethyl)-thiazolium bromide]
Breaking Anti-AGE ([2]; at 10 mM): 28% | Breaking Anti-BSA ([2]; at 10 mM): 37% | melting point: 211 to 212 °C

Compound: Cc1c(CCO)sc[n+]1Cc1ccccc1[N+](=O)[O-].[Br-] [3-(2′-nitrobenzyl)-4-methyl-5-(2′-hydroxyethyl)-thiazolium bromide]
Breaking Anti-AGE ([2]; at 10 mM): 11% | Breaking Anti-BSA ([2]; at 10 mM): 13% | melting point: 215 to 216 °C

melting point: 127 to 129 °C
Compound: C#CC[n+]1csc(C)c1.[Br-]

melting point: 208 to 209 °C
Compound: C=Cc1sc[n+](CC(=O)c2cc(C(C)(C)C)c(O)c(C(C)(C)C)c2)c1C (as salt: bromide) [3-(2-(3′,5′-tert-butyl-4′-hydroxyphenyl)-2-oxoethyl)-4-methyl-5-vinyl-thiazolium bromide]

Compound: CCCCN(CCCC)C(=O)C[n+]1csc(CCO)c1C.[Br-] [3-(2-Dibutylamino-2-oxoethyl]-4-methyl-5-(2′-hydroxyethyl)-thiazolium bromide]
Relative Cross-link Inhibition (at 10 mM) [1]: 0.8% (10 mm) | Breaking Anti-AGE ([2]; at 10 mM): 25% | Breaking Anti-BSA ([2]; at 10 mM): 38% | melting point: 78 to 80 °C

Compound: Cc1sc[n+](CC(N)=O)c1C.[Br-] [3-(2-amino-2-oxoethyl)-4,5-dimethyl-thiazolium bromide]
IC50 [1]: 9.9 mM | Breaking Anti-AGE ([2]; at 30 mM): 61% | Breaking Anti-BSA ([2]; at 30 mM): 16%

Compound: COC(=O)C[n+]1csc(C)c1C.[Br-] [3-(2-methoxy-2-oxoethyl)-4,5-dimethylthiazolium bromide]
IC50 [1]: 0.48 mM | Breaking Anti-AGE ([2]; at 30 mM): 63% | Breaking Anti-BSA ([2]; at 30 mM): 47% | melting point: 184 to 185 °C (dec.)

Compound: COC(=O)C[n+]1csc2ccccc21.[Br-] [3-(2-methoxy-2-oxoethyl)-benzothiazolium bromide]
IC50 [1]: > 10 mM | Breaking Anti-AGE ([2]; at 30 mM): 66% | Breaking Anti-BSA ([2]; at 30 mM): 37% | IC50 [2, 3]: 1.2 mM | IC50 [2, 4]: 25.9 mM

melting point: 186 to 187 °C
Compound: Cc1c(CCO)sc[n+]1CC(=O)C(C)(C)C.[Br-]

Compound: Cc1c(CCO)sc[n+]1CC(=O)Nc1c(C(C)C)cccc1C(C)C.[Br-] [3-(2-(2′,6′-Diisopropylanilino)-2-oxoethyl]-4-methyl-5-(2′-hydroxyethyl)-thiazolium bromide]
Relative Cross-link Inhibition (at 10 mM) [1]: 19% | Breaking Anti-AGE ([2]; at 10 mM): 31% | Breaking Anti-BSA ([2]; at 10 mM): 48%

Compound: Cc1c(CCOCc2c(Cl)cccc2Cl)sc[n+]1N.Cc1cc(C)c(S(=O)(=O)[O-])c(C)c1 [3-amino-4-methyl-5-(2(2′,6′-dichlorobenzyloxy)ethyl]-thiazolium mesitylenesulfonate]
Relative Cross-link Inhibition ([1]; 3 mM): 26.5% (3 mm) | Breaking Anti-AGE ([2]; at 10 mM): 31% | Breaking Anti-BSA ([2]; at 10 mM): 54%

Compound: Cc1csc[n+]1CC(N)=O.[Br-] [3-(2-amino-2-oxoethyl)-4-methyl-thiazolium bromide]
IC50 [1]: 0.7 mM | Breaking Anti-AGE ([2]; at 30 mM): 89% | Breaking Anti-BSA ([2]; at 30 mM): 44% | IC50 [2, 3]: 4.7 mM | IC50 [2, 4]: 38.6 mM

IC50 [1]: 0.78 mM | Breaking Anti-AGE ([2]; at 1 mM): 65% | Breaking Anti-AGE ([2]; at 10 mM): 48% | Breaking Anti-BSA ([2]; at 1 mM): 69% | Breaking Anti-BSA ([2]; at 10 mM): 49% | IC50 [2, 3]: 3 mM
Compound: Cc1c[n+](CC(=O)c2cc(C(C)(C)C)c(O)c(C(C)(C)C)c2)cs1 [3-[2-(3′,5′-di-tert-butyl-4′-hydroxyphenyl)-2-oxoethyl)-5-methyl-thiazolium bromide]
